Assay results published in patent US20210330756A1, “Acetylation of Miro1” (University of South Carolina, priority 2020, published 2021).

How the values were obtained:
[1] = system: adult DRG neurons; experiment: Axon growth of DRG neurons on laminin or substrate-bound aggrecan (CSPG); type: cell-based, rat; settings: 10 μM TubA, 24 h
Excerpt: MAG and CSPGs are more often tested as surface-bound substrates than with the bath applications used here. Thus, we tested whether bath application of growth inhibitors would cause growth cone retraction in a manner similar to surface-bound inhibitors. […] RhoA activation is a well-known downstream mediator for the growth-inhibitory effects of both MAG and CSPGs (Fujita and Yamashita, 2014), so we tested whether the RhoA/ROCK pathway contributes to the impact of aggregan on mitochondria distribution in growth cones.
MAG or Aggrecan exposures were performed as bath application or on coated substrates. For bath application, dissociated DRGs were cultured for 48 h and treated with 25 μg/ml of MAG-Fc (R&D Systems; 538-MG), 25 μg/ml Fc control (R&D Systems; 110-HG), or 10 μg/ml of Aggrecan (Sigma-Aldrich; A1960) for 4 h. Cultures were pretreated with either Ca^2+ chelator BAPTA-AM (3 μM; Sigma-Aldrich; A1076), ROCK inhibitor Y27632 (10 μM; Sigma-Aldrich; SCM075), HDAC6 inhibitor TubA (10 μM; R&D Systems; 6270), Thapsigargin (1 μM; Sigma-Aldrich; T9033), Rho Activator II (1 μg/ml; Cytoskeleton; CNO3), or equivalent volume DMSO 30 min before MAG-Fc, Aggrecan, or controls. […]
NF-stained cultures were used for neurite growth analyses. […] The growth cone area was measured using ImageJ software from these annotated DIC images. […]

[2] = system: growth cones of DRG neurons; experiment: Immunolabeling of growth cone cytoskeleton (Ac-α-tubulin, tyrosinated α-tubulin, F-actin); type: cell-based, rat
Experimental: We tested for this specificity in the adult DRG neurons from above by immunoblotting. […] (A) Number of mitochondria in growth cones after exposing DRG cultures to 10 μM TubA versus vehicle (control) for 1 h is shown as average fold-change in number of mitochondria per growth cone±SEM (n=13 axons across three culture preparations; *, P≤0.05 by one-way ANOVA with Bonferroni post hoc analysis). (B) Representative EMs of Remak bundles (arrowheads) in naive Sciatic nerve and nerves after 2 h vehicle (DMSO) or TubA injection are shown. Arrows indicate mitochondria in the unmyelinated axons. Note that a Schwann cell nucleus (asterisk) is seen in the Remak bundle for DMSO image but not the other two micrographs (scale bar=3 μm). (C) Quantification of number of mitochondria per unmyelinated axon from EM images as in B is shown as average±SEM (n≥5; *****, P≤0.0001 by one-way ANOVA with Bonferroni post hoc analysis). (D-F) Quantification for indicated parameters for mitochondrial transport in sciatic nerve in vivo using tetramethylrhodamine, ethyl ester, perchlorate to visualize mitochondria is shown.
We used a sequential immunostaining approach for simultaneous detection of tyrosinated α-tubulin (by indirect immunofluorescence), Ac-α-tubulin, and β-tubulin (by direct immunofluorescence). Phalloidin staining was also used to detect F-actin. Monoclonal mouse anti-Ac-α-tubulin IgG (6-11-B1; Sigma-Aldrich; T6793) was conjugated to Alexa Fluor 405 using the Zenon Labeling Kit per the manufacturer's instructions (Life Technologies; Z-25013). After fixation and permeabilization, coverslips were incubated with anti-Tyr-α-tubulin IgG (1:100; Sigma-Aldrich; T9028) in 1% blocking buffer overnight at 4° C. in a humidified chamber. […] Coverslips were washed twice with PBS then stained with Actin-Red 555 Ready Probe for 30 min (1:25 dilution of 200 /Uml stock; Thermo Fisher Scientific; R37112). […] Epifluorescence and confocal imaging was used for imaging of fixed samples to obtain protein localization and quantitation data. […]

CN1CCc2c(c3ccccc3n2Cc2ccc(C(=O)NO)cc2)C1 [TubA, tubastatin]
effect on attenuation of axon growth by substrate-bound aggrecan [1]: prevented by TubA exposure | anti-Ac-α-tubulin immunoreactivity in growth cones ([2]; 10 μM vs control cultures): significant increase in anti-Ac-α-tubulin immunoreactivity in growth cones | tyrosinated α-tubulin in growth cones ([2]; 10 μM vs control cultures): no change in tyrosinated α-tubulin | growth cone signals for F-actin ([2]; TubA-treated cultures): consistently decreased
